Source: patent US20210017607A1, “Methods of Predicting Responsiveness to Cancer Therapies” (The University of Chicago, priority 2019, published 2021)

Key:
[1] = tested on: B6-Myc (STING^hi) cancer cells; experiment: IFNβ1 ELISA of supernatants after DMXAA treatment; format: cell-based, mouse; conditions: 36 hours
Description: (§1) FIGS. 15A-15E. Differential STING pathway activation within B6-Myc (STING^hi) cell lines and BMDMs relative to Myc-CAP (STING^lo) cells. (15A, 15B) The indicated cancer cell lines and BMDMs were treated with DMXAA (mouse STING agonist) for 1 and 24 hours, respectively, and protein extracts were interrogated for cGAS/STING pathway activation with the indicated antibodies by Western blotting. Supernatants were collected from for IFNβ1 ELISA following 36 hours of treatment with DMXAA (15C, 15D). (15E) Syngeneic Myc-CAP (STING^lo) tumors were processed into single cell suspensions and used for phycoerythrin-based sorting of CD45+ cellular fractions. Equal numbers of cells from these fractions were stimulated with DMXAA. Supernatants were collected at 36 hrs for detection of IFNB1 by ELISA; n=3 independent experiments; Significance/p-values were calculated by one-way Anova (for 15C & 15E) or paired t-test (for 15D); TAM=tumor associated macrophage; s.e.=short exposure; l.e.=long exposure.
Cancer Cell Lines. Transgenic c-myc” prostate tumor derived cell line, Myc-CAP) (STING^lo) was obtained from ATCC and passaged in 1× DMEM (without phenol red) containing 10% fetal bovine serum, 1% penicillin-streptomycin and 2% L-glutamine. The corresponding c-myc^hi line derived from a C57BL6 generated background were grown for in vitro studies, using same culture conditions as for Myc-CAP. […]

[2] = tested on: bone marrow derived macrophages (BMDMs); experiment: IFNβ1 ELISA of supernatants after DMXAA treatment; format: cell-based, mouse; conditions: 36 hours
Description: as §1
Generation of BMDMs. Bone marrow derived macrophages were differentiated as previously described. […]

Pi3K enzymatic activity = experiment: Intratumoral target inhibition by western blotting; format: in vivo, mouse; conditions: B6-Myc and Myc-CAP tumors; 30 mg/kg oral gavage daily 7 days
Description: (§2) FIGS. 18A and 18B. Buparlisib and Rucaparib inhibit intratumoral Pi3K and PARP enzymatic activity, respectively, within B6-Myc (STING^hi) and Myc-CAP (STING^lo) tumors. Subcutaneous Myc-CAP (STING^lo) and B6-Myc (STING^hi) tumors at 400-500 mm^3 volumes were treated with either buparlisib (pan-PI3K inhibitor, 30 mg/kg) or rucaparib (PARP inhibitor, 150 mg/kg) by oral gavage daily for 7 days. At end of treatment, both (18A) B6-Myc (STING^hi) and (18B) Myc-CAP (STING^lo) tumors were harvested and protein extracts utilized for assessment of target inhibition with the indicated antibodies by western blotting. n=2 mice per treatment group.
(§3) Western Blot Analysis. RIPA and T-PER buffer (Thero Scientific®), supplemented with protease (Roche®) and HALT phosphatase inhibitor cocktail (Roche®), were used for preparation of lysates from in vitro cell lines and whole tumor chunks, respectively. For western blotting, the following antibodies were used from Cell Signaling Technology®: Polyclonal rabbit anti-mouse-phospho-γH2AX, phospho-AKT, total AKT, cGAS, STING, phospho-IRF3, total IRF3, phospho-TBK1, total TBK1, PTEN, β-actin and GAPDH. Monoclonal anti-mouse PAR antibody was obtained from Trevigen®. Images of scanned blots were processed using ADOBE Photoshop®.

PARP enzymatic activity = experiment: Intratumoral target inhibition by western blotting; format: in vivo, mouse; conditions: B6-Myc and Myc-CAP tumors; 150 mg/kg oral gavage daily 7 days
Description: as §2, §3

Cc1ccc2c(=O)c3cccc(CC(=O)O)c3oc2c1C [DMXAA, 5,6-Dimethylxanthenone-4-acetic Acid]
fold induction in IFN-β levels [1]: 48.1 fold | fold induction in IFN-β levels [2]: 46.4 fold

Nc1cc(C(F)(F)F)c(-c2cc(N3CCOCC3)nc(N3CCOCC3)n2)cn1 [buparlisib]
intratumoral Pi3K enzymatic activity (Pi3K enzymatic activity): inhibit

CNCc1ccc(-c2[nH]c3cc(F)cc4c3c2CCNC4=O)cc1 [rucaparib]
intratumoral PARP enzymatic activity (PARP enzymatic activity): inhibit
